The assay concerns the target Epidermal growth factor receptor (Homo sapiens, UniProt P00533). The assay can be described thus: Displacement of [125I]-TGFalpha from human EGFR in human A431 cell membrane by SPA. In kind it is cell membranes, A-431.

Molecules are shown by their SMILES.

Chain of Epidermal growth factor receptor (P00533 whole entry): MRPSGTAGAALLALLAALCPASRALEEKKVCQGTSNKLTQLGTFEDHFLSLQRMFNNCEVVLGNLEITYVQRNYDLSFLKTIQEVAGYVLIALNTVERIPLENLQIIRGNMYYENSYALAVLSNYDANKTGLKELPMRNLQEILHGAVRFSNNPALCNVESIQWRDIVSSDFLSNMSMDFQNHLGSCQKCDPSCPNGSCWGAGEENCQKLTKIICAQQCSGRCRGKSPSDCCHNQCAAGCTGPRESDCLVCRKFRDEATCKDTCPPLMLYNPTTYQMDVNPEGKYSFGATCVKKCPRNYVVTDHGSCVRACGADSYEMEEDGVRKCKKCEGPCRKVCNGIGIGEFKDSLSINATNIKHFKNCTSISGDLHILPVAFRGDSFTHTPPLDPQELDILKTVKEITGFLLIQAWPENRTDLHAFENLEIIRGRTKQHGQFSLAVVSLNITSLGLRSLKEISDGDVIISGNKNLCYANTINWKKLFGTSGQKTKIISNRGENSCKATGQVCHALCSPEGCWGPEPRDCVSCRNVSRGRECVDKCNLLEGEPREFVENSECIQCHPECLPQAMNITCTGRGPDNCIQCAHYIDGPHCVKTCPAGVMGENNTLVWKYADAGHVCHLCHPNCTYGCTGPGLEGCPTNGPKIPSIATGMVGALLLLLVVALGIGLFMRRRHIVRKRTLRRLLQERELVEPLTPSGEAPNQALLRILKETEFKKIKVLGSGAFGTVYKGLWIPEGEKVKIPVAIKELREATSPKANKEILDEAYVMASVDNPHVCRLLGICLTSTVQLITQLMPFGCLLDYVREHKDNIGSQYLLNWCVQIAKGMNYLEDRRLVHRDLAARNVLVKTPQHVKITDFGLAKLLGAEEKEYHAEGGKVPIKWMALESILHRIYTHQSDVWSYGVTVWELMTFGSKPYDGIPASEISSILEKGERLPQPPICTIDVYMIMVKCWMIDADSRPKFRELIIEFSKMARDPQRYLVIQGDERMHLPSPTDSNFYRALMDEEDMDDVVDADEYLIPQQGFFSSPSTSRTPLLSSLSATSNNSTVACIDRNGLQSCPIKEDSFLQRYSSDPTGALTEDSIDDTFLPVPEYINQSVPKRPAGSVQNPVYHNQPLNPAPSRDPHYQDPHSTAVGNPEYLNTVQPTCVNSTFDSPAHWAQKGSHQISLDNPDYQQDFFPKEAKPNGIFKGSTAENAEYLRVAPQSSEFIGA

In the case of `CCC(C)/C=C/C(=O)C(=O)/C=C/C=C/C=C/C=C/C=C/C=C/[C@@H]1C[C@@H](O)[C@H](C(=O)O)O1` (stereo partly specified) [COCHLIOBOLIC ACID], the 50% inhibitory concentration (IC50) (usually the midpoint of a concentration-inhibition curve) worked out at 1600 nM.
